Measured values from US4169834A, “Rifamycin derivatives” (Gruppo Lepetit S.p.A., priority 1977, dated 1979).
Converted amounts (≈) assume the structure as drawn.

Tests used:
Format in all cases: cell-based
Staph. Aureus Tour = test: in vitro antibacterial activity (MIC), Staph. Aureus Tour; details: Staphylococcus aureus
Excerpt: (§1) The MIC is expressed as μg/ml.

Myc. Tub. H37 Rv = test: in vitro antibacterial activity (MIC), Myc. Tub. H37 Rv
Proteus vulgaris = test: in vitro antibacterial activity (MIC), Proteus vulgaris
Excerpt: as §1

Kleb. pneumoniae = test: in vitro antibacterial activity (MIC), Kleb. pneumoniae; details: Klebsiella pneumoniae
Excerpt: as §1

Staph. Aureus = test: in vitro antibacterial activity (MIC), Staph. Aureus; details: Staphylococcus aureus
Excerpt: as §1

Pseud. aeruginosa = test: in vitro antibacterial activity (MIC), Pseud. aeruginosa; details: Pseudomonas aeruginosa
Excerpt: as §1

Strept. faecalis = test: in vitro antibacterial activity (MIC), Strept. faecalis; details: Enterococcus faecalis
Excerpt: as §1

Escherichia coli = test: in vitro antibacterial activity (MIC), Escherichia coli
Excerpt: as §1

Strept. haemolyticus = test: in vitro antibacterial activity (MIC), Strept. haemolyticus
Excerpt: as §1

Strept. pneumoniae = test: in vitro antibacterial activity (MIC), Strept. pneumoniae; details: Streptococcus pneumoniae
Excerpt: as §1

Question: For `COC1C=COC2(C)Oc3c(C)c(O)c4c(O)c(c5sc(C(C)C)nc5c4c3C2=O)NC(=O)C(C)=CC=CC(C)C(O)C(C)C(O)C(C)C(OC(C)=O)C1C` (stereo not shown) [Example 4, 4-Deoxy-2'-isopropyl-thiazolo[5,4-c]rifamycin SV], which MIC (Staph. Aureus Tour) is on record?
Answer: 0.00156 µg/mL (≈ 0.002 µM)

Question: What about the MIC (Myc. Tub. H37 Rv) of the same compound?
Answer: 0.31 µg/mL (≈ 0.397 µM)

Question: And the MIC (Proteus vulgaris)?
Answer: 6.25 µg/mL (≈ 8 µM)

Question: And the MIC (Kleb. pneumoniae)?
Answer: 25 µg/mL (≈ 32 µM)

Question: And the MIC (Staph. Aureus)?
Answer: 0.00078 µg/mL (≈ 0.000999 µM)

Question: What about the MIC (Pseud. aeruginosa) of the same compound?
Answer: 12.5 µg/mL (≈ 16 µM)

Question: What about the MIC (Strept. faecalis) of the same compound?
Answer: 0.012 µg/mL (≈ 0.0154 µM)

Question: And the MIC (Escherichia coli)?
Answer: 12.5 µg/mL (≈ 16 µM)

Question: And the MIC (Strept. haemolyticus)?
Answer: 0.012 µg/mL (≈ 0.0154 µM)

Question: What about the MIC (Strept. pneumoniae) of the same compound?
Answer: 0.012 µg/mL (≈ 0.0154 µM)

Question: `CCCCCCc1nc2c(s1)c1c(O)c3c(O)c(C)c4c(c32)C(=O)C(C)(OC=CC(OC)C(C)C(OC(C)=O)C(C)C(O)C(C)C(O)C(C)C=CC=C(C)C(=O)N1)O4` (stereo not shown) [Example 6, 4-Deoxy-2'-hexyl-thiazolo[5,4-c]rifamycin SV] was tested. Which MIC (Staph. Aureus Tour) did it give?
Answer: 0.0031 µg/mL (≈ 0.00377 µM)

Question: What about the MIC (Myc. Tub. H37 Rv) of the same compound?
Answer: 1.2 µg/mL (≈ 1.46 µM)

Question: And the MIC (Proteus vulgaris)?
Answer: 3.12 µg/mL (≈ 3.79 µM)

Question: And the MIC (Kleb. pneumoniae)?
Answer: 25 µg/mL (≈ 30.4 µM)

Question: And the MIC (Staph. Aureus)?
Answer: 0.0012 µg/mL (≈ 0.00146 µM)

Question: What about the MIC (Pseud. aeruginosa) of the same compound?
Answer: 12.5 µg/mL (≈ 15.2 µM)

Question: And the MIC (Strept. faecalis)?
Answer: 0.012 µg/mL (≈ 0.0146 µM)

Question: What about the MIC (Escherichia coli) of the same compound?
Answer: 12.5 µg/mL (≈ 15.2 µM)

Question: What about the MIC (Strept. haemolyticus) of the same compound?
Answer: 0.012 µg/mL (≈ 0.0146 µM)

Question: And the MIC (Strept. pneumoniae)?
Answer: 0.012 µg/mL (≈ 0.0146 µM)

Question: With `CCCc1nc2c(s1)c1c(O)c3c(O)c(C)c4c(c32)C(=O)C(C)(OC=CC(OC)C(C)C(OC(C)=O)C(C)C(O)C(C)C(O)C(C)C=CC=C(C)C(=O)N1)O4` (stereo not shown) [Example 3, 4-Deoxy-2'-propyl-thiazolo[5,4-c]rifamycin SV] as the compound, how does the MIC (Staph. Aureus Tour) read?
Answer: 0.00156 µg/mL (≈ 0.002 µM)

Question: What about the MIC (Myc. Tub. H37 Rv) of the same compound?
Answer: 0.62 µg/mL (≈ 0.794 µM)

Question: And the MIC (Proteus vulgaris)?
Answer: 3.12 µg/mL (≈ 4 µM)

Question: What about the MIC (Kleb. pneumoniae) of the same compound?
Answer: 25 µg/mL (≈ 32 µM)

Question: What about the MIC (Staph. Aureus) of the same compound?
Answer: 0.00078 µg/mL (≈ 0.000999 µM)

Question: And the MIC (Pseud. aeruginosa)?
Answer: 12.5 µg/mL (≈ 16 µM)

Question: What about the MIC (Strept. faecalis) of the same compound?
Answer: 0.00156 µg/mL (≈ 0.002 µM)

Question: What about the MIC (Escherichia coli) of the same compound?
Answer: 12.5 µg/mL (≈ 16 µM)

Question: And the MIC (Strept. haemolyticus)?
Answer: 0.0031 µg/mL (≈ 0.00397 µM)

Question: What about the MIC (Strept. pneumoniae) of the same compound?
Answer: 0.00078 µg/mL (≈ 0.000999 µM)

Question: `CCc1nc2c(s1)c1c(O)c3c(O)c(C)c4c(c32)C(=O)C(C)(OC=CC(OC)C(C)C(OC(C)=O)C(C)C(O)C(C)C(O)C(C)C=CC=C(C)C(=O)N1)O4` (stereo not shown) [Example 1, 4-Deoxy-2'-ethyl-thiazolo[5,4-c]rifamycin SV] was tested. Which MIC (Staph. Aureus Tour) did it give?
Answer: 0.00078 µg/mL (≈ 0.00102 µM)

Question: And the MIC (Myc. Tub. H37 Rv)?
Answer: 0.31 µg/mL (≈ 0.404 µM)

Question: And the MIC (Proteus vulgaris)?
Answer: 6.25 µg/mL (≈ 8.15 µM)

Question: And the MIC (Kleb. pneumoniae)?
Answer: 25 µg/mL (≈ 32.6 µM)

Question: What about the MIC (Staph. Aureus) of the same compound?
Answer: 0.0004 µg/mL (≈ 0.000522 µM)

Question: What about the MIC (Pseud. aeruginosa) of the same compound?
Answer: 12.5 µg/mL (≈ 16.3 µM)

Question: And the MIC (Strept. faecalis)?
Answer: 0.0062 µg/mL (≈ 0.00808 µM)

Question: What about the MIC (Escherichia coli) of the same compound?
Answer: 12.5 µg/mL (≈ 16.3 µM)

Question: And the MIC (Strept. haemolyticus)?
Answer: 0.012 µg/mL (≈ 0.0156 µM)

Question: And the MIC (Strept. pneumoniae)?
Answer: 0.0062 µg/mL (≈ 0.00808 µM)

Question: `COC1C=COC2(C)Oc3c(C)c(O)c4c(O)c(c5sc(C)nc5c4c3C2=O)NC(=O)C(C)=CC=CC(C)C(O)C(C)C(O)C(C)C(OC(C)=O)C1C` (stereo not shown) [Example 2, 4-Deoxy-2'-methyl-thiazolo[5,4-c]rifamycin SV] was tested. Which MIC (Staph. Aureus Tour) did it give?
Answer: 0.0031 µg/mL (≈ 0.00412 µM)

Question: What about the MIC (Myc. Tub. H37 Rv) of the same compound?
Answer: 0.62 µg/mL (≈ 0.824 µM)

Question: And the MIC (Proteus vulgaris)?
Answer: 1.56 µg/mL (≈ 2.07 µM)

Question: And the MIC (Kleb. pneumoniae)?
Answer: 25 µg/mL (≈ 33.2 µM)

Question: What about the MIC (Staph. Aureus) of the same compound?
Answer: 0.00078 µg/mL (≈ 0.00104 µM)

Question: And the MIC (Pseud. aeruginosa)?
Answer: 25 µg/mL (≈ 33.2 µM)

Question: What about the MIC (Strept. faecalis) of the same compound?
Answer: 0.0031 µg/mL (≈ 0.00412 µM)

Question: What about the MIC (Escherichia coli) of the same compound?
Answer: 12.5 µg/mL (≈ 16.6 µM)

Question: And the MIC (Strept. haemolyticus)?
Answer: 0.0031 µg/mL (≈ 0.00412 µM)

Question: What about the MIC (Strept. pneumoniae) of the same compound?
Answer: 0.0062 µg/mL (≈ 0.00824 µM)

Question: What does the source list for `COC1C=COC2(C)Oc3c(C)c(O)c4c(O)c(c5sc(CC(C)C)nc5c4c3C2=O)NC(=O)C(C)=CC=CC(C)C(O)C(C)C(O)C(C)C(OC(C)=O)C1C` (stereo not shown) [Example 5, 4-Deoxy-2'-isobutyl-thiazolo[5,4-c]rifamycin SV]?
Answer: MIC (Staph. Aureus Tour): 0.001 µg/mL (≈ 0.00126 µM); MIC (Myc. Tub. H37 Rv): 0.15 µg/mL (≈ 0.189 µM); MIC (Proteus vulgaris): 3.12 µg/mL (≈ 3.92 µM); MIC (Kleb. pneumoniae): 50 µg/mL (≈ 62.9 µM); MIC (Staph. Aureus): 0.00078 µg/mL (≈ 0.000981 µM); MIC (Pseud. aeruginosa): 12.5 µg/mL (≈ 15.7 µM); MIC (Strept. faecalis): 0.0062 µg/mL (≈ 0.0078 µM); MIC (Escherichia coli): 12.5 µg/mL (≈ 15.7 µM); MIC (Strept. haemolyticus): 0.001 µg/mL (≈ 0.00126 µM); MIC (Strept. pneumoniae): 0.0062 µg/mL (≈ 0.0078 µM)

Question: What does the source list for `COC1C=COC2(C)Oc3c(C)c(O)c4c(O)c(c5scnc5c4c3C2=O)NC(=O)C(C)=CC=CC(C)C(O)C(C)C(O)C(C)C(O)C1C` (stereo not shown) [Example 8, 25-Desacetyl-4-deoxy-thiazolo[5,4-c]rifamycin SV]?
Answer: MIC (Staph. Aureus Tour): 0.1 µg/mL (≈ 0.144 µM); MIC (Myc. Tub. H37 Rv): 0.6 µg/mL (≈ 0.861 µM); MIC (Proteus vulgaris): 0.78 µg/mL (≈ 1.12 µM); MIC (Kleb. pneumoniae): 12.5 µg/mL (≈ 17.9 µM); MIC (Staph. Aureus): 0.02 µg/mL (≈ 0.0287 µM); MIC (Pseud. aeruginosa): 12.5 µg/mL (≈ 17.9 µM); MIC (Strept. faecalis): 0.4 µg/mL (≈ 0.574 µM); MIC (Escherichia coli): 6.25 µg/mL (≈ 8.97 µM); MIC (Strept. haemolyticus): 0.1 µg/mL (≈ 0.144 µM); MIC (Strept. pneumoniae): 0.1 µg/mL (≈ 0.144 µM)
